Reference: patent publication US20240165116A1, “ROCK2 INHIBITOR FOR THE TREATMENT OF VIRAL INFECTION” (Graviton Bioscience B.V., priority 2021, published 2024)
Entries after “also recorded” stand apart in the source; their conditions may differ.

Columns and labels:
[1] = system: SARS-CoV-2 (2019-nCoV/USA-WA1/2020 strain); experiment: In vitro SARS-CoV-2 prevention model: viral RNA in supernatant by qPCR; format: cell-based; conditions: Severe acute respiratory syndrome coronavirus 2; Calu-3 cells treated 2 h at 37° C., challenged with 10^2 PFU SARS-CoV-2 for 6 h, qPCR of supernatant at 48 h; calculated from best-fit values; read-out: EC50 (SARS-CoV-2 in supernatant, classical dose-response curve)
Procedure: FIG. 2. Efficacy: SARS-CoV-2 CPN in Supernatant. Immortalized human airway epithelial cells (Calu-3) were treated with the listed concentrations of the Formula XII compound for 2 h at 37° C. followed by challenge with SARS-CoV-2 for 6 h. After washing, the cells were maintained for 48 hours and viral infection was analyzed by qPCR of the supernatant. Each data point represents the mean of three replicates.
FIG. 3. Efficacy: Classical Dose-Response Curve. This figure provides the dose-response curve for the experiment described in Example 1 and FIG. 2.
A 50 mM stock solution of (6-(4-((4-(1H-pyrazol-4-yl)phenyl)amino)pyrimidin-2-yl)-1-methyl-1H-indol-2-yl)(3,3-difluoroazetidin-1-yl)methanone (Formula XII) in DMSO was diluted using PBS to Formula XII concentrations of 100 μM, 10 μM, 1 μM, 0.3 μM, 0.1 μM, and 0.03 μM. About 30,000 immortalized human airway epithelial cells (Calu-3) were grown to about 100,000 cells per well in a 96-well format. […]
Viral infection was analyzed by qPCR (qRT-PCR). […] Viral or host RNA levels in the supernatant were determined using the TaqPath™ 1-Step RT-qPCR Master Mix (Thermo Fisher) on CFX Connect Real-Time System (Bio-Rad) instrument using the following primers: Fwd: 5′-[…]-3; Rev: 5′-[…]-3′).
Datasets were analyzed and plotted in GraphPad Prism (version 9.0.2). […]

[2] = system: SARS-CoV-2 (2019-nCoV/USA-WA1/2020 strain); experiment: Viral load in lung lysates of SARS-CoV-2 challenged human ACE2 transgenic mice; format: in vivo; conditions: 300 mg/kg daily via oral gavage in 0.5% CMC-Na; initial viral loads 100, 1000, 10,000 pfu; compared with vehicle and Remdesivir (25 mg/kg subcutaneously)
Procedure: FIGS. 6A, 6B, and 6C. Efficacy: Viral Load in Lung Lysates. […] Shown are viral copies/mg of lungs for initial viral loads of 100 pfu SARS-CoV2 (FIG. 6A), 1000 pfu SARS-CoV2 (FIG. 6B), and 10,000 pfu SARS-CoV2 (FIG. 6C). Groups from left to right: Vehicle, Formula XII (300 mg/kg), Remdesivir (RDV). Inserts: Formula XII (300 mg/kg) (left), Remdesivir (RDV) (right).
Human ACE2 transgenic mice from Jackson Laboratories (n=5 per group) were challenged at t=0 with SARS-CoV-2 at an initial viral load of 100 PFU, 1,000, or 10,000 pfu of 2019-nCoV/USA-WA1/2020 strain. This strain was isolated from an oropharyngeal swab from a patient with a respiratory illness who developed the clinical disease (COVID-19) in January 2020 in Washington, US (BEI Resources, NR-52281). […] The infected mice were dosed daily via oral gavage with (1) 0.5% sodium carboxymethyl cellulose (CMC-Na) (negative control), (2) 300 mg/kg Formula XII in 0.5% CMC-Na (test group), or (3) Remdesivir (RDV). RDV, an anti-viral reagent that acts as a nucleoside analog and inhibits the RNA-dependent RNA polymerase (RdRp) of coronaviruses including SARS-CoV-2, was used a positive control. […] The animals were monitored daily. […] The viral load in the lung was determined by qPCR detecting viral RNA in lung lysates.

## Cn1c(C(=O)N2CC(F)(F)C2)cc2ccc(-c3nccc(Nc4ccc(-c5cn[nH]c5)cc4)n3)cc21 [Formula XII, (6-(4-((4-(1H-pyrazol-4-yl)phenyl)amino)pyrimidin-2-yl)-1-methyl-1H-indol-2-yl)(3,3-difluoroazetidin-1-yl)methanone]
[1]
  EC50: 124 nM
[2]
  Viral load in the lung (viral copies/mg of lungs, qPCR of lung lysates): significantly reduced viral load as compared to both the negative as well as the positive control; also recorded: reduces the spread of SARS-CoV2 in the lungs of mice in vivo
